According to patent US20030093842A1, “Resistance marker for monocotyledons” (Biogemma UK Limited, priority 1997, published 2003):

Tested on: immature embryos of NB1
Assay: Asulam kill curve: production of embryogenic callus by immature embryos on Asulam-supplemented W3 medium
Type: cell-based, wheat
Settings: scored after 6 weeks
Experimental: The tissue culture protocol was essentially as the method of Weeks et al (Plant Physiol., 102:1077-1084 (1993)). Donor plants of the South American spring wheat line designated NB1, obtained from Nickerson Seeds Limited, were grown in a glasshouse under controlled conditions. Immature ears were harvested at 14-20 days post anthesis, and the immature caryopses were removed from the ear and dehusked using forceps. Caryopses were surface-sterilised with 70% ethanol for 2 minutes and 20% Domestos™ (Lever, UK) for 20-30 minutes and then washed with sterile distilled water. Immature embryos were isolated aseptically under a stereo dissecting microscope and placed scutella uppermost on W3 medium (MS supplemented with 20 g/l sucrose and 2 mg/l 2,4-D and solidified with 6 g/l Type I agarose [Sigma, Poole, UK]). Cultures were maintained at 25° C. with a 16 h photoperiod for 5 days prior to bombardment. Immature embryos were isolated as described for example 1, plated onto W3 medium and maintained in the dark. After 5-7 days embryos were transferred to W3 medium supplemented with Asulam (Rhone-Poulenc Agrochemicals, Ongar, UK) at a range of concentrations between 0 and 5 mg/l and maintained at 25° C. with a 16 h photo period. Embryos and embryo-derived embryogenic calli were transferred to fresh selective medium every 2 weeks. The calli were scored for embryogenic response after 6 weeks.

For `COC(=O)NS(=O)(=O)c1ccc(N)cc1` [Asulam], the “Embryogenic response (%)” value (Asulam 0.1 mg/l in W3 medium, (no. embryos with embryogenic callus/total no. embryos plated) × 100) was 100%, the “Embryogenic response (%)” value (Asulam 0.25 mg/l in W3 medium) was 64% and the “Embryogenic response (%)” value (Asulam 0.5 mg/l in W3 medium) was 28%. For the same compound, the “Embryogenic response (%)” value (Asulam 1 mg/l in W3 medium) was 0%, the “Embryogenic response (%)” value (Asulam 2 mg/l in W3 medium) was 0% and the “Embryogenic response (%)” value (Asulam 3 mg/l in W3 medium) was 0%. The “Embryogenic response (%)” value (Asulam 4 mg/l in W3 medium) was 0% and the “Embryogenic response (%)” value (Asulam 5 mg/l in W3 medium) was 0%.
